Source: patent US9834550B2, “Pyridopyrimidinone compounds for modulating the catalytic activity of histone lysine demethylases (KDMs)” (Dong-A Socio Holdings Co., Ltd., priority 2014, dated 2017)

target: T1, Recombinant human JARID1B/KDM5B (Homo sapiens, UniProt Q9UGL1); experiment: LANCE Ultra TR-FRET demethylase assay with FLAG-tagged JARID1B; type: biochemical; conditions: 100 nM compound; 500 nM biotinylated H3K4me3 peptide substrate
T1 construct: purchased Active Motif 31432; host or cells: Sf9 insect cells
T1 sequence (Q9UGL1 whole entry): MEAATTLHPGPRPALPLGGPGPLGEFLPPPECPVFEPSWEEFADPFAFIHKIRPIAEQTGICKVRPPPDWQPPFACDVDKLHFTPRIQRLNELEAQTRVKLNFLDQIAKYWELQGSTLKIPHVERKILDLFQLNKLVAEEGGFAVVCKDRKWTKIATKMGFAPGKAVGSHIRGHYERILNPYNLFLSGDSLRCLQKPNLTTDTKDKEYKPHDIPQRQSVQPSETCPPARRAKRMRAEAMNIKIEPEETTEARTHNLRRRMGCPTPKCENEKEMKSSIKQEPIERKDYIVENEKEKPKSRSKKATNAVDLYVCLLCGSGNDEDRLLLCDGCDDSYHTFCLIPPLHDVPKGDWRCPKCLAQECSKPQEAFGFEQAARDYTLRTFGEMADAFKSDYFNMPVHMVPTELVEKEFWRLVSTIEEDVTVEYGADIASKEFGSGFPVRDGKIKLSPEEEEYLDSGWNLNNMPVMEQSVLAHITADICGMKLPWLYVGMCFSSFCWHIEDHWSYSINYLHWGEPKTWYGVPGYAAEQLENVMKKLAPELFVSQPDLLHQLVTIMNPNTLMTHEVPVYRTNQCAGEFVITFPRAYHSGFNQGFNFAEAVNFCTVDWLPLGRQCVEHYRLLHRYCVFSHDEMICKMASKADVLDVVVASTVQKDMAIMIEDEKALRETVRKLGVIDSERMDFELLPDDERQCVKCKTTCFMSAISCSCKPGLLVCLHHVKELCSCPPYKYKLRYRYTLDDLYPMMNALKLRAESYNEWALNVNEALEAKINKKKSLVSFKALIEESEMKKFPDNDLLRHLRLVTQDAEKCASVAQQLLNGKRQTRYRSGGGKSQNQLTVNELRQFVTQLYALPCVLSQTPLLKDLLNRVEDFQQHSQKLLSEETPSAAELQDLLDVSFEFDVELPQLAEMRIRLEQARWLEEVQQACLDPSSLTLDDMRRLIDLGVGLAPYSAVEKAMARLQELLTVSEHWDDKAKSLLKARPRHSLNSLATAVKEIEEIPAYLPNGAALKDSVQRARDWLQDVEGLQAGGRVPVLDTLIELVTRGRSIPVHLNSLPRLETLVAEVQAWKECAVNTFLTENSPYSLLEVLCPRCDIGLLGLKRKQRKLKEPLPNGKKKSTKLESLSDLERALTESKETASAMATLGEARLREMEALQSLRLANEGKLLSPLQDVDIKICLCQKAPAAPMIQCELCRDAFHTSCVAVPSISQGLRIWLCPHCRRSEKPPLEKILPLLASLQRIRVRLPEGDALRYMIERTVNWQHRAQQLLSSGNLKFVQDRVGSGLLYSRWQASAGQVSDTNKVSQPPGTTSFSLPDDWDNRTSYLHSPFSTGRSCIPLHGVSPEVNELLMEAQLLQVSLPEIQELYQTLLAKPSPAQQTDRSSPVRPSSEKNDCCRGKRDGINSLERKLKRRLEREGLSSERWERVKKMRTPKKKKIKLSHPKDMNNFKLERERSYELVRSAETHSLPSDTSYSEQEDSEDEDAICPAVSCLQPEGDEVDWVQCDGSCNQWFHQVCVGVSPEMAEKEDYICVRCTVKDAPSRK
Description: FLAG-tagged JARID1B (also known as KDM5B) protein was screened against more than 170 compounds. For this compound screening, LANCE Ultra time-resolved fluorescence resonance energy transfer (TR-FRET) assay was employed using an europoium (Eu)-labeled antibody that can specifically recognize mono- or dimethylated peptides (H3K4me2/1) and ULight-streptavidin (ULight-SA), a small molecule fluorescent dye. When irradiated at 340 nm, the energy from the Eu donor is transferred to the ULight acceptor dye which, in turn, emits light primarily at 665 nm. The ratio between the intensity of primary emission at 665 nm and that of secondary emission at 590 nm was used to quantify the level of lysine methylation. As JARID1B removes more methyl moieties from tri-methylated substrate peptides (H3K4me3), the ratio increases until the enzyme reaction is terminated. In case, therefore, the compounds disrupt the enzymatic activity completely, the ratio becomes equal to a background value.
Recombinant human JARID1B/KDM5B (accession number NP_006609) of molecular weight 179.9 KDa was expressed in Sf9 insect cells and contains an N-terminal FLAG tag. The enzyme was obtained from Active Motif (Catalog No. 31432). The tri-methylated histone substrate peptide of purity greater than 95% was a synthetic peptide in which the first 21 amino acids correspond to the human histone H3 sequence with three extra amino acids and a biotin motif (GGK-biotin) linked to the C-terminus [sequence: ART-K (Me3)-QTARKSTGGKAPRKQLA-GGK-biotin-OH], (AnaSpec, Fremont, Calif. Catalog. No. ANA-1413). The reference inhibitory compound tranylcypromine (or trans-2-phenylcyclopropylamine hydrochloride, also known as, 2-PCPA) was purchased from Sigma (St. Louis, Mo. Cat. no. P8511). ULight-labeled streptavidin (ULight-SA, Catalog no. TRF0102), Eu-W1024-labeled anti-methyl-Histone H3 Lysine 4 (H3K4me1-2) Antibody (Catalog no. TRF0402), and LANCE detection buffer 10× (Catalog no. CR97-100) were obtained from PerkinElmer (Montreal, Quebec, Canada). The TR-FRET experiments were carried out in white, low-volume 384-wellplates purchased from PerkinElmer (ProxiPlate-384 Plus, Catalog no. 6008280).
The TR-FRET signal was measured in the presence both of the bio-H3K4me3 peptide and FLAG-JARID1B by detecting any H3K4me2/1 peptide produced in the assay system. Assays using only the bio-H3K4me2 peptide were served as a positive control. Robust enzymatic progressions were observed by using JARID1B at concentrations ranging from 10 to 30 nM. In a typical TR-FRET experiment, JARID1B was pre-incubated with or without 20 uM, 1 uM, or 0.1 uM of test-compounds (containing 1% DMSO final) for […]. The enzymatic reactions were initiated by the addition of 500 nM biotinylated H3K4me3 peptide substrate plus 500 uM of 2-OG, 25 uM Fe(II) and 2 mM ascorbate. The reaction buffer also contained 50 mM Hepes (pH7.5), 0.01% (v/v) Tween 20, and 50 mM NaCl. The reaction mixture was incubated for […] at room temperature before reading on an EnVision plate reader (PerkinElmer, Waltham, Mass.).

Row | inhibition at 0.1 µM [%] | SMILES
1 | < 20 | O=c1[nH]c(COc2ccccn2)nc2c(CNCC3CCNCC3)nccc12 [Example 133, 8-(((piperidin-4-ylmethyl)amino)methyl)-2-((pyridin-2-yloxy)methyl)pyrido[3,4-d]pyrimidin-4(3H)-one]
2 | 20 to 50 | O=c1[nH]c(COc2ccc(F)c(Cl)c2)nc2c(CNCc3ccnc(Cl)c3)nccc12 [Example 182, 2-((3-chloro-4-fluorophenoxy)methyl)-8-((((2-chloropyridin-4-yl)methyl)amino)methyl)pyrido[3,4-d]pyrimidin-4(3H)-one]
3 | 20 to 50 | Cc1ccccc1OCc1nc2c(CNCC3CCNCC3)nccc2c(=O)[nH]1 [Example 118, 8-(((piperidin-4-ylmethyl)amino)methyl)-2-((o-tolyloxy)methyl)pyrido[3,4-d]pyrimidin-4(3H)-one]
4 | 20 to 50 | CC(Oc1ccc(Cc2ccccc2)cc1)c1nc2c(CNCC3CCN(C)C3)nccc2c(=O)[nH]1 (stereo not drawn) [Example 214, 2-(1-(4-benzylphenoxy)ethyl)-8-((((1-methylpyrrolidin-3-yl)methyl)amino)methyl)pyrido[3,4-d]pyrimidin-4(3H)-one]
5 | 20 to 50 | O=c1[nH]c(COc2cc(Cl)ccc2Cl)nc2c(CNCC3CCNCC3)nccc12 [Example 115, 2-((2,5-dichlorophenoxy)methyl)-8-(((piperidin-4-ylmethyl)amino)methyl)pyrido[3,4-d]pyrimidin-4(3H)-one]
6 | > 50 | CCN(CC)C1CCN(C(=O)CNCc2nccc3c(=O)[nH]c(COc4ccc(F)c(Cl)c4)nc23)C1 (stereo not drawn) [Example 236, 2-((3-chloro-4-fluorophenoxy)methyl)-8-(((2-(3-(diethylamino)pyrrolidin-1-yl)-2-oxoethyl)amino)methyl)pyrido[3,4-d]pyrimidin-4(3H)-one]
7 | 20 to 50 | Cc1cc(Cl)ccc1OCc1nc2c(CNCC3CCNCC3)nccc2c(=O)[nH]1 [Example 137, 2-((4-chloro-2-methylphenoxy)methyl)-8-(((piperidin-4-ylmethyl)amino)methyl)pyrido[3,4-d]pyrimidin-4(3H)-one]
8 | 20 to 50 | O=C(CNCc1nccc2c(=O)[nH]c(COc3ccc(F)c(Cl)c3)nc12)N1CCCCC1 [Example 224, 2-((3-chloro-4-fluorophenoxy)methyl)-8-(((2-oxo-2-(piperidin-1-yl)ethyl)amino)methyl)pyrido[3,4-d]pyrimidin-4(3H)-one]
9 | 20 to 50 | Cc1cccc(OCc2nc3c(CNCC4CCNCC4)nccc3c(=O)[nH]2)c1 [Example 119, 8-(((piperidin-4-ylmethyl)amino)methyl)-2-((m-tolyloxy)methyl)pyrido[3,4-d]pyrimidin-4(3H)-one]
10 | 20 to 50 | CCN1CCC[C@H]1CNCc1nccc2c(=O)[nH]c(COc3ccc(Cc4ccccc4)cc3)nc12 [Example 146, (S)-2-((4-benzylphenoxy)methyl)-8-((((1-ethylpyrrolidin-2-yl)methyl)amino)methyl)pyrido[3,4-d]pyrimidin-4(3H)-one]
11 | > 50 | O=c1[nH]c(COc2cccc(Cl)c2)nc2c(CNCC3CCN(Cc4ccccc4)CC3)nccc12 [Example 106, 8-((((1-benzylpiperidin-4-yl)methyl)amino)methyl)-2-((3-chlorophenoxy)methyl)pyrido[3,4-d]pyrimidin-4(3H)-one]
12 | 20 to 50 | N[C@H]1CC[C@H](NCc2nccc3c(=O)[nH]c(COc4ccc(Cc5ccccc5)cc4)nc23)CC1 [Example 155, 8-((((1r,4r)-4-aminocyclohexyl)amino)methyl)-2-((4-benzylphenoxy)methyl)pyrido[3,4-d]pyrimidin-4(3H)-one]
13 | 20 to 50 | O=c1[nH]c(COc2ccc(Cc3ccccc3)cc2)nc2c(CNC[C@H]3CCCO3)nccc12 [Example 148, (R)-2-((4-benzylphenoxy)methyl)-8-((((tetrahydrofuran-2-yl)methyl)amino)methyl)pyrido[3,4-d]pyrimidin-4(3H)-one]
14 | 20 to 50 | O=c1[nH]c(COc2ccc(C3CCCC3)cc2)nc2c(CNCC3CCNCC3)nccc12 [Example 140, 2-((4-cyclopentylphenoxy)methyl)-8-(((piperidin-4-ylmethyl)amino)methyl)pyrido[3,4-d]pyrimidin-4(3H)-one]
15 | 20 to 50 | O=C(CNCc1nccc2c(=O)[nH]c(COc3ccc(F)c(Cl)c3)nc12)N1CCC(N2CCOCC2)C1 (stereo not drawn) [Example 235, 2-((3-chloro-4-fluorophenoxy)methyl)-8-(((2-(3-morpholinopyrrolidin-1-yl)-2-oxoethyl)amino)methyl)pyrido[3,4-d]pyrimidin-4(3H)-one]
16 | 20 to 50 | CCN1CCC[C@@H]1CNCc1nccc2c(=O)[nH]c(COc3ccc(Cc4ccccc4)cc3)nc12 [Example 145, (R)-2-((4-benzylphenoxy)methyl)-8-((((1-ethylpyrrolidin-2-yl)methyl)amino)methyl)pyrido[3,4-d]pyrimidin-4(3H)-one]
17 | > 50 | O=C(CNCc1nccc2c(=O)[nH]c(COc3ccc(F)c(Cl)c3)nc12)NC1CCN(Cc2ccccc2)C1 (stereo not drawn) [Example 232, N-(1-benzylpyrrolidin-3-yl)-2-(((2-((3-chloro-4-fluorophenoxy)methyl)-4-oxo-3,4-dihydropyrido[3,4-d]pyrimidin-8-yl)methyl)amino)acetamide]
18 | < 20 | O=c1[nH]c(C2CCOC2)nc2c(CNCC3CCNCC3)nccc12 (stereo not drawn) [Example 195, 8-(((piperidin-4-ylmethyl)amino)methyl)-2-(tetrahydrofuran-3-yl)pyrido[3,4-d]pyrimidin-4(3H)-one]
19 | > 50 | O=C(CNCc1nccc2c(=O)[nH]c(COc3ccc(F)c(Cl)c3)nc12)N[C@@H]1CCNC1 [Example 239, (R)-2-(((2-((3-chloro-4-fluorophenoxy)methyl)-4-oxo-3,4-dihydropyrido[3,4-d]pyrimidin-8-yl)methyl)amino)-N-(pyrrolidin-3-yl)acetamide]
20 | > 50 | C[C@H](Oc1ccc(F)c(Cl)c1)c1nc2c(CNCC3CCN(C)CC3)nccc2c(=O)[nH]1 [Example 220, (S)-2-(1-(3-chloro-4-fluorophenoxy)ethyl)-8-((((1-methylpiperidin-4-yl)methyl)amino)methyl)pyrido[3,4-d]pyrimidin-4(3H)-one]
21 | > 50 | O=c1[nH]c(COc2ccc(Cc3ccccc3)cc2)nc2c(CNC[C@H]3CCNC3)nccc12 [Example 150, (S)-2-((4-benzylphenoxy)methyl)-8-(((pyrrolidin-3-ylmethyl)amino)methyl)pyrido[3,4-d]pyrimidin-4(3H)-one]
22 | < 20 | C[C@@H](Oc1ccc(F)c(Cl)c1)c1nc2c(CNCC3CCNCC3)nccc2c(=O)[nH]1 [Example 217, (R)-2-(1-(3-chloro-4-fluorophenoxy)ethyl)-8-(((piperidin-4-ylmethyl)amino)methyl)pyrido[3,4-d]pyrimidin-4(3H)-one]
23 | > 50 | CCN1CCC(CNCc2nccc3c(=O)[nH]c(COc4ccc(Cc5ccccc5)cc4)nc23)C1 (stereo not drawn) [Example 142, 2-((4-benzylphenoxy)methyl)-8-((((1-ethylpyrrolidin-3-yl)methyl)amino)methyl)pyrido[3,4-d]pyrimidin-4(3H)-one]
24 | > 50 | C[C@@H](Oc1ccc(Cc2ccccc2)cc1)c1nc2c(CNCC3CCNCC3)nccc2c(=O)[nH]1 [Example 215, (R)-2-(1-(4-benzylphenoxy)ethyl)-8-(((piperidin-4-ylmethyl)amino)methyl)pyrido[3,4-d]pyrimidin-4(3H)-one]
